Assay results taken from patent US7781418B2, “Composition for treating bone disorders” (Isis Innovation Ltd., priority 2006, dated 2010).
pIC50: −log10 of the molar value. Where a name gives a salt, the structure may show the parent alone.

Assays:
[1] = molecular target: T1, farnesyl pyrophosphate synthase (FPPS) (Homo sapiens, UniProt P14324); test: farnesyl pyrophosphate synthase (FPPS) inhibition assay; type: biochemical
T1 sequence (P14324 1-419): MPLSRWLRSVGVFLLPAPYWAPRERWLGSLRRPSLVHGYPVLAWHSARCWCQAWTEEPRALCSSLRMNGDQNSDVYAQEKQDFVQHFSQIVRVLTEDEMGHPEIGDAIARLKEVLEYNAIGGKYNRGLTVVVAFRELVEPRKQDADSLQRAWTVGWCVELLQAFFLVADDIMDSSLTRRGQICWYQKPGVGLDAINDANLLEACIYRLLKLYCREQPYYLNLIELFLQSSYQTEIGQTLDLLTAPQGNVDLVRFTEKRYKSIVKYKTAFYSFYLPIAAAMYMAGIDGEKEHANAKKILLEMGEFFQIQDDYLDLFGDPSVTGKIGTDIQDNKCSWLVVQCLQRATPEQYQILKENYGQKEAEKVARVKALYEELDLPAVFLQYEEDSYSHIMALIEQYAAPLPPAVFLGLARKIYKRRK
Procedure: The activity of the racemic mixture, is approximately 42 nM.

[2] = system: bone resorption and mineralization; test: Schenk Model: in vivo bone resorption inhibition and mineralization inhibition, lowest effective dose; conditions: for Lowest Effective Dose, Bone Mineral Density (BMD) / Lowest Effective Dose, Bone Mineral Content (BMC): head-to-head comparison of all three compounds; for Lowest Effective Dose, Bone Mineral Content (BMC): highest dose tested 0.1

| SMILES | pIC50 [1] | Lowest Effective Dose, Bone Mineral Density (BMD) [2] [mg P/kg] | Lowest Effective Dose, Bone Mineral Content (BMC) [2] | activity in the Schenk assay relative to enantiomer (1S,6R) and racemic mixture ([2]; compared with (1S,6R) enantiomer and corresponding racemic mixture) |
| --- | --- | --- | --- | --- |
| O=P(O)(O)C1(P(=O)(O)O)CC2CCCNC2C1 (racemic) [Racemic Mixture] | ~7.38 | 0.03 | 0.03 mg P/kg | – |
| O=P(O)(O)C1(P(=O)(O)O)C[C@@H]2CCCN[C@@H]2C1 [1R,6S Isomer, (1R,6S)-2-Azabicyclo[4.3.0]nonane-8,8-diphosphonic acid hydrochloride salt] | 7.82 | 0.01 | 0.01 mg P/kg | more active |
| O=P(O)(O)C1(P(=O)(O)O)C[C@H]2CCCN[C@H]2C1 [1S,6R Isomer] | 6.44 | 0.1 | >0.1^2^ mg P/kg | – |
